Data: article PMC8455218, “A Cornflower Extract Containing N-Feruloylserotonin Reduces Inflammation in Human Skin by Neutralizing CCL17 and CCL22 and Inhibiting COX-2 and 5-LOX” (Mediators of Inflammation, 2021)

Target: T1, Macrophage-Derived Chemokine (MDC/CCL22) (Homo sapiens, UniProt O00626)
T1 sequence (O00626 25-93): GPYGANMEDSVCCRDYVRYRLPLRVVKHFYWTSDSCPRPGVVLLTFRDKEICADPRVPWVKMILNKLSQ
Assay: TRIC-r calcium mobilization, Indo-1, EGFP-CCR4+Gqi5+ HEK cells
Format: cell-based

IC50: 15 µM
SMILES: COc1cc(/C=C/C(=O)NCCc2c[nH]c3ccc(O)cc23)ccc1O [N-Feruloylserotonin]
